Laboratory results taken from ChEMBL document CHEMBL1201862, “PubChem BioAssay data set” (2004).
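A five-concentration, 48-hour dose response in 96-well plates underlies each endpoint, interpolated linearly between surrounding concentrations. GI50: concentration for 50% inhibition of growth.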 The source made the active and inactive calls. Rule as the data show it: active = GI50 up to about 1.1 µM and inactive = higher.

Tests used:
Test in all cases: growth of human tumour cells (NCI), 48 h
UACC-257 = system: UACC-257
NCI/ADR-RES = system: NCI/ADR-RES
DU-145 = system: DU-145
HT-29 = system: HT-29
COLO 205 = system: COLO 205
K562 = system: K562
SF-295 = system: SF-295
IGROV-1 = system: IGROV-1
A498 = system: A498
HL-60 = system: HL-60
HCC 2998 = system: HCC 2998
SR = system: SR
HOP-92 = system: HOP-92
TK-10 = system: TK-10
786-0 = system: 786-0
A549 = system: A549
RXF 393 = system: RXF 393
CAKI-1 = system: CAKI-1
UO-31 = system: UO-31
RPMI-8226 = system: RPMI-8226

Measured: GI50

COC(=O)C1=C(OC(=O)c2ccccc2)C(C(=O)OC)[C@]2(O)[C@@H](C(=O)OC)[C@H]1C[C@@H](c1ccccc1)[C@@H]2C(=O)OC (some centres not stated)
inactive: UACC-257 5.62 µM | NCI/ADR-RES 2.62 µM | DU-145 9.4 µM | HT-29 15.7 µM | COLO 205 10.2 µM | K562 3.33 µM | SF-295 5.82 µM | IGROV-1 4.69 µM | A498 16.3 µM | HL-60 2.02 µM | HCC 2998 7.21 µM | SR 8.87 µM | HOP-92 2.82 µM | TK-10 17.3 µM | 786-0 16.4 µM | A549 9.18 µM | RXF 393 3.14 µM | CAKI-1 14.2 µM | UO-31 2.52 µM | RPMI-8226 1.74 µM

CCOC(=O)c1c(Br)c(-c2ccc(Br)cc2)c(Br)n1C
inactive: UACC-257 20.7 µM | NCI/ADR-RES 5.38 µM | DU-145 31.1 µM | HT-29 11.7 µM | COLO 205 14.9 µM | K562 5.08 µM | SF-295 17.9 µM | IGROV-1 12.2 µM | A498 18.2 µM | HL-60 6.59 µM | HCC 2998 19.5 µM | SR 3.22 µM | HOP-92 7.31 µM | TK-10 39 µM | 786-0 20.5 µM | A549 23.6 µM | RXF 393 11.2 µM | CAKI-1 17.1 µM | UO-31 17.9 µM | RPMI-8226 17.9 µM

Cc1ncc([N+](=O)[O-])n1CCNS(=O)(=O)CCCn1ncnc1[N+](=O)[O-]
inactive: UACC-257 > 100 µM | NCI/ADR-RES > 100 µM | DU-145 > 100 µM | HT-29 > 100 µM | COLO 205 > 100 µM | K562 > 100 µM | SF-295 > 100 µM | IGROV-1 > 100 µM | A498 > 100 µM | HL-60 > 100 µM | SR > 100 µM | HOP-92 > 100 µM | TK-10 > 100 µM | 786-0 > 100 µM | A549 > 100 µM | RXF 393 > 100 µM | CAKI-1 > 100 µM | UO-31 > 100 µM | RPMI-8226 > 100 µM

Oc1nc2c(c(-c3ccc(F)cc3)n1)COC/C2=C\c1ccc(F)cc1
inactive: UACC-257 > 100 µM | NCI/ADR-RES > 100 µM | DU-145 > 100 µM | COLO 205 > 100 µM | K562 > 100 µM | SF-295 > 100 µM | IGROV-1 > 100 µM | A498 > 100 µM | HCC 2998 > 100 µM | SR > 100 µM | HOP-92 > 100 µM | TK-10 > 100 µM | 786-0 > 100 µM | RXF 393 > 100 µM | CAKI-1 > 100 µM | UO-31 > 100 µM | RPMI-8226 > 100 µM

CC(C)C(NC(=O)C(Cc1ccccc1)NC(=O)[C@H]1CCC[C@H]1NC(=O)C(Cc1ccc(OC(C)(C)C)cc1)NC(=O)OC(C)(C)C)C(N)=O (some centres not stated)
inactive: UACC-257 > 10 µM | NCI/ADR-RES > 100 µM | DU-145 54.2 µM | HT-29 21.5 µM | COLO 205 19.6 µM | K562 17.8 µM | SF-295 17.3 µM | IGROV-1 31.3 µM | A498 10.7 µM | HL-60 34.8 µM | HCC 2998 16.5 µM | SR 34.9 µM | HOP-92 21.8 µM | TK-10 28.5 µM | 786-0 60.1 µM | A549 20.1 µM | RXF 393 81.1 µM | CAKI-1 95.9 µM | UO-31 47.4 µM | RPMI-8226 36.5 µM

CC1=NN(c2cccc(Cl)c2)C(=N/c2nc3ccccc3s2)/C1=C\c1ccc(Cl)cc1
inactive: UACC-257 20.7 µM | NCI/ADR-RES 22.5 µM | DU-145 34.2 µM | HT-29 17.9 µM | K562 29 µM | SF-295 23.4 µM | IGROV-1 13.5 µM | A498 22.2 µM | HL-60 22.4 µM | HCC 2998 16.4 µM | SR 24.7 µM | HOP-92 17.4 µM | TK-10 26.4 µM | 786-0 18.8 µM | RXF 393 20.3 µM | UO-31 23.9 µM | RPMI-8226 37.2 µM

CCOC1NC(=O)Oc2ccccc21 (configuration not stated)
inactive: UACC-257 > 100 µM | NCI/ADR-RES > 100 µM | DU-145 > 100 µM | HT-29 > 100 µM | COLO 205 > 100 µM | K562 > 100 µM | SF-295 > 100 µM | IGROV-1 > 100 µM | A498 > 100 µM | HL-60 > 100 µM | HCC 2998 > 100 µM | SR > 100 µM | HOP-92 > 100 µM | TK-10 > 100 µM | 786-0 > 100 µM | A549 > 100 µM | RXF 393 > 100 µM | CAKI-1 > 100 µM | UO-31 > 100 µM
